From paper PMC11977230, “Coevolving residues distant from the ligand binding site are involved in GAF domain function” (Communications Chemistry, 2025)

Assays:
[1] = biological target: F295A mutant full-length PDE5A2 biosensor (Homo sapiens, UniProt O76074, F295A); assay: BRET-based full-length PDE5A2 conformational biosensor, cGMP dose-response (F295A); format: biochemical
From the text: (§1) Having elucidated the impact of the L267A and F295A mutations in the isolated GAFa domain, we aimed to investigate their effect on the cGMP-binding induced conformational change in the full-length PDE5 protein. For this, we incorporated the mutations in our previously described BRET-based, full-length PDE5A2 biosensor (Fig. 5A) that reports a conformational change upon cGMP binding to the GAFa, but not the catalytic, domain in the protein[25].
(§2) The design of the BRET^2-based GAFa and full-length PDE5 (A2 isoform) biosensors was described previously[24],[25]. […]
(§3) All assays were performed at 37 °C in 96-well, white, flat-bottom plates. […] Bioluminescence spectra of the WT or the mutant biosensors were acquired over wavelengths ranging between 385 and 665 nm utilizing a grating-based system with 15 nm integration step size, with each individual measurement acquired for 1 s using a Tecan SPARK® multimode microplate reader (Tecan, Switzerland). BRET was determined as a ratio of GFP^2 and RLuc emission, either in the absence or in the presence of the indicated concentrations of cGMP, following a 30-min incubation at 37 °C. Bioluminescence and BRET were measured following the addition of the RLuc substrates, either coelenterazine 400a or Prolume purple (NanoLight Technology, Prolume Ltd., USA). […]

GAFb domain of PDE2A = system: GAFb domain of PDE2A; set-up: method as in PMID 15210692; conditions: cGMP-binding GAFb domain of PDE2A; cited from earlier work
[2] = biological target: L267A mutant full-length PDE5A2 biosensor (Homo sapiens, UniProt O76074, L267A); assay: BRET-based full-length PDE5A2 conformational biosensor, cGMP dose-response (L267A); format: biochemical
From the text: as §1, §2, §3

[3] = biological target: T1, WT PDE5 GAFa domain biosensor (GFP^2-GAFa(I159-N316)-RLuc) (Homo sapiens, UniProt O76074); assay: BRET-based GAFa domain conformational biosensor, cGMP dose-response (WT); format: biochemical
T1 construct: plasmids expressing the GAFa domain-based (GFP^2-GAFa(I159-N316)-RLuc); made in house; host or cells: HEK293T cells, transfected; cleared lysate used, not purified
From the text: (§4) Having observed alterations in the structural dynamics in the GAFa domain of PDE5 upon L267A and F295A mutations using MD simulations, we then proceeded to determine the impact of these mutations experimentally. […] (Fig. 4A). Broadly, these changes include a close juxtaposition of the sheet β3 and helix α4 leading to a “closing” of the cGMP binding site, an “inward” movement of sheet β1 and β2 towards the cGMP binding site and an “outward” movement of the loop β2/β3 (Fig. 4A, left panel). Additionally, cGMP binding is associated with a close juxtapositioning of helices α2 and α5 at the N- and C-termini of the GAFa domain, likely associated with the transduction of the allosteric signal from the GAFa domain to the catalytic domain in PDE5 (Fig. 4A, right panel). We decided to take advantage of the latter to monitor cGMP-binding induced conformational change in the GAFa domain through an increase in the BRET efficiency of the GAFa domain biosensor that we have described previously[24] (Fig. 4B). BRET is a biophysical technique that involves resonance energy transfer between a bioluminescent donor and a fluorescent acceptor, the extent of which is dependent on the spectral overlap, distance, and relative orientation between the two reporters. […]

[4] = system: isolated PDE5 GAFa domain; conditions: cited from earlier work
[5] = biological target: T2, L267A mutant PDE5 GAFa domain biosensor (Homo sapiens, UniProt O76074, L267A); assay: BRET-based GAFa domain conformational biosensor, cGMP dose-response (L267A); format: biochemical; conditions: 1 µM cGMP
T2 construct: made in house; host or cells: HEK293T cells, transfected; cleared lysate used, not purified
From the text: as §4

[6] = biological target: T3, F295A mutant PDE5 GAFa domain biosensor (Homo sapiens, UniProt O76074, F295A); assay: BRET-based GAFa domain conformational biosensor, cGMP dose-response (F295A); format: biochemical; conditions: 1 µM cGMP
T3 construct: made in house; host or cells: HEK293T cells, transfected; cleared lysate used, not purified
From the text: as §4

[7] = biological target: T4, WT full-length PDE5A2 biosensor (GFP^2-PDE5A2-RLuc) (Homo sapiens, UniProt O76074); assay: BRET-based full-length PDE5A2 conformational biosensor, cGMP dose-response (WT); format: biochemical
T4 construct: the GAFa domain (I159-N316) or the full-length PDE5A2, were flanked by the green fluorescent protein 2 (GFP^2); made in house; host or cells: HEK293T cells, transfected; cleared lysate used, not purified
From the text: as §1, §2, §3

[8] = 30 min incubation, mean ± S.D., three experiments, read-out: EC50 of cGMP-induced conformational change (decrease in BRET)

Nc1nc2c(ncn2[C@@H]2O[C@@H]3COP(=O)(O)O[C@H]3[C@H]2O)c(=O)[nH]1 [cGMP]
EC50 [1, 8]: 3400 ± 2100 nM | maximum BRET change ([1]; cGMP dose-response): −12.60 ± 2.37% | fold higher affinity for cGMP (GAFb domain of PDE2A): about 20 fold | EC50 [2, 8]: 181 ± 30 nM | maximum BRET change ([2]; cGMP dose-response): −17.43 ± 1.31% | change in BRET in the presence of cGMP ([3]; 1 µM cGMP): increase in BRET | EC50 ([3]; read-out: EC50 of cGMP-induced conformational change (increase in BRET), HEK293T cell lysate, 30 min, 37 °C, mean ± S.D., four experiments): 19 ± 13 nM | affinity for cGMP ([4]; PDE5 GAFa domain): nanomolar affinity | higher affinity for cGMP compared to cAMP ([4]; isolated PDE5 GAFa domain): thousand-fold | change in BRET in the presence of cGMP [5]: neither the L267A nor the F295A mutant biosensors showed a discernible change in BRET | change in BRET in the presence of cGMP [6]: neither the L267A nor the F295A mutant biosensors showed a discernible change in BRET | EC50 [7, 8]: 73 ± 20 nM | maximum BRET change ([7]; cGMP dose-response): -26.60 ± 3.42%
